The nature of this data set: GHS categories as the set defines them, by LD50: 1 up to 5, 2 up to 50, 3 up to 300, 4 up to 2000, 5 above 2000 mg/kg. The following applies: rat; in vivo; po. An excerpt:
[…]The data set underlying the modeling effort for this project was initially compiled by NICEATM and U.S. EPA’s CCTE. Briefly, LD50 data were collected from rat acute oral systemic toxicity tests, including limit tests, ranges/confidence intervals, and discrete LD50 values. The full data set included 21,200 LD50 entries for 15,688 substances. […] Data were reviewed to ensure that LD50 values with obvious errors in the extracted data such as unit conversion errors (e.g., comma and decimal separator misplacements) were either fixed or removed. After this review, 16,209 LD50 values remained. Many of the chemicals represented had multiple LD50 entries, requiring that a single representative value per Chemical Abstracts Service Registry Number (CASRN) identifier be defined to facilitate modeling efforts. Based on ATWG feedback and to define the representative LD50 as a protective value while accounting for the distribution across multiple LD50s, the median of the lowest quartile was computed using only discrete LD50 values (omitting limit test data and range and confidence interval data). A detailed summary of the data compilation is available online on the NICEATM webpage dedicated to the collaborative modeling project (NTP 2020).
[…][…] For categorical designations, limit test and range/confidence interval LD50 data were integrated wherever possible. As such, the number of chemicals with end point values/calls varies across the modeling end points (Table 3) based on whether chemicals had representative LD50 values and/or other data. If a chemical had both, the representative value was used to determine categorical calls rather than limit test data. Some data were useable only for certain end points and categories depending on the thresholds. For example, ranges that spanned multiple hazard categories were considered only for the binary (very toxic/nontoxic) end points and omitted from rendering a determination for hazard category assignment.
[…]The final data set comprising 11,992 chemicals was split into training and evaluation sets […], respectively. This process was performed semirandomly by ordering chemicals based on the five end points (categorical and continuous LD50 values) and partitioning every fourth record into the evaluation set accordingly. This approach was taken to ensure an equivalent distribution of the LD50 values and the different hazard categories between the training and the evaluation sets without supervised sampling of the chemicals based on structures (Figure 1A). The sources of the chemical structures were also kept equivalent between the two sets, with chemical structures obtained from DSSTox, being the highest quality, representing over 75% of each set (Figure 1B).

Each structure is given as a SMILES string.

`CC(C)C1C(=O)N(c2ccccc2)N(c2ccc(O)cc2)C1=O` (centres undefined) returned a GHS category of 4.
With `CCC1(CO)COC1` the figure was 5; with `c1ccc2sc(SSc3nc4ccccc4s3)nc2c1`, 5.
For the compound `Nc1nc(=O)c2c([nH]1)NCC(CNc1ccc(C(=O)N[C@@H](CCC(=O)O)C(=O)O)cc1)N2C=O` (some centres undefined), the GHS category came to 5.
With `CCOC(=O)C(Cl)C(=O)OCC` the figure was 4; with `Cc1ccc2nc(-c3ccc(N)cc3)sc2c1S(=O)(=O)O`, 5.
The result for `CCC(=O)OC(C)(C)Cc1ccccc1` reads 5; that for `CCN1CCN(C(=O)N[C@@H](C(=O)N[C@]2(OC)C(=O)N3C(C(=O)O)=C(CSc4nnnn4C)CS[C@@H]32)[C@H](C)O)C(=O)C1=O`, 5.
The result for `CC(=O)Nc1c(I)c(NC(C)=O)c(I)c(C(=O)O)c1I` reads 5; that for `CCC1(CC)C(=O)N2Cc3ccccc3CN2C1=O`, 5; that for `CC12CCC(=O)NC1=CCC1C2CCC2(C)C(C(=O)O)CCC12` (centres undefined), 5.
The compound `NC(=O)c1ccc[n+]([C@@H]2O[C@H](COP(=O)([O-])OP(=O)(O)OC[C@H]3O[C@@H](n4cnc5c(N)ncnc54)[C@H](O)[C@@H]3O)[C@@H](O)[C@H]2O)c1` returned a GHS category of 5.
Compound `C=CC(=O)OCC[N+](C)(C)Cc1ccccc1` displayed a GHS category of 5.
`c1ccc(-c2nc3ccccc3o2)cc1` had a GHS category of 5.
With `c1ccc(CN(Cc2ccccc2)Sc2nc3ccccc3s2)cc1` the figure was 5.
The result for `COCCCCC(=O)c1ccc(C(F)(F)F)cc1` reads 5; that for `CC(=O)CC(=O)Nc1cc(Cl)c(NC(=O)CC(C)=O)cc1C`, 5.
With `CN1CCN(CC(=O)N(C)c2ccc(N)cc2)CC1` the figure was 5; with `O=C=Nc1ccc(Br)cc1`, 5.
For `CCN(CC)CCOC(=O)c1ccc(NC(=O)C(C)(C)Oc2ccccc2Cl)cc1`, the GHS category turned out to be 5.
With `CN1C[C@H](c2ccnn2C)CC2c3cccc4[nH]cc(c34)C[C@H]21` (some centres undefined) the figure was 4; with `CCOC(=O)C(F)F`, 5.
With `C[C@]12C[C@H]3O[C@H]3CC1CCC1C2CC[C@]2(C)C(=O)[C@@H](N3CCCC3)CC12` (some centres undefined) the figure was 5.
Take `CCC1(CO)COCOC1`: the GHS category came out at 5.
With `C=C1NC(=O)C(C)NC(=O)C(C(C)C)NC2C=Cc3c(C(C)O)cc(nc3C2O)C(=O)OC(C)C2NC(=S)c3csc(n3)C(C(C)(O)C(C)O)NC(=O)C3CSC(=N3)C(=CC)NC(=O)C(C(C)O)NC(=O)c3csc(n3)C3(CCC(c4nc(C(N)=O)cs4)NC3c3csc2n3)NC(=O)C(C)NC1=O` (centres undefined) the figure was 5.
The result for `CC(=O)OC1CN(C)C(=O)N1c1cc(C(C)(C)C)no1` (centres undefined) reads 4; that for `Clc1ccccc1-c1nc(-c2ccncc2)no1`, 5.
With `C[C@]12COC(=O)C[C@@H]1CC[C@@H]1[C@@H]2CC[C@@]2(C)[C@H]1CC[C@]2(C)O` the figure was 5; with `COc1nc(Nc2ccc(C=Cc3ccc(Nc4nc(OC)nc(N(CCO)CCO)n4)cc3S(=O)(=O)O)c(S(=O)(=O)O)c2)nc(N(CCO)CCO)n1`, 5.
The compound `COc1ccc(OC(=O)c2ccccc2OC(N)=O)cc1` registered a GHS category of 5.
The result for `FC(F)(F)c1cccc(C(c2ccccc2)(c2ccccc2)n2cncn2)c1` reads 5; that for `CSc1nc2cc(Cl)c(Oc3cccc(Cl)c3Cl)cc2[nH]1`, 5; that for `O=[N+]([O-])c1ccc2c(c1)COP(=S)(N1CCOCC1)O2` (centres undefined), 3.
The result for `CSC(C)=NOC(=O)N(C)SN(C)C(=O)Oc1ccc(Sc2ccc(OC(=O)N(C)SN(C)C(=O)ON=C(C)SC)cc2)cc1` reads 4.
The result for `COC(=O)C(C)(C)c1ccc(Br)cc1` reads 5; that for `CN(C)CCCOc1nn(-c2cccc(C(F)(F)F)c2)c2ncccc12`, 4.
`FC(F)(Cl)C(Cl)(Cl)Cl` had a GHS category of 5.
The result for `C=C[Si](C)(C)Cl` reads 3; that for `O=P(O)(O)CN(CP(=O)(O)O)CP(=O)(O)O`, 5; that for `CC(=O)C(N=Nc1cc(C(=O)Nc2cc(Cl)ccc2C)ccc1Cl)C(=O)Nc1cc(C)c(NC(=O)C(N=Nc2cc(C(=O)Nc3cc(Cl)ccc3C)ccc2Cl)C(C)=O)cc1C` (centres undefined), 5.
The result for `CCOCC(O)COc1ccc(NC(=O)CC[S+](C)C)cc1` (centres undefined) reads 5; that for `CC[C@H]1CO[C@@](Cn2ccnc2)(c2cc3cc(Cl)cc(Cl)c3o2)O1`, 4; that for `C=CCSc1nc(N)c2c(C)coc2n1`, 5.
The compound `CC(Oc1ccc(Oc2ncc(C(F)(F)F)cc2Cl)cc1)C(=O)O` (centres undefined) returned a GHS category of 4.
The compound `COc1nc(C)nc(=NC(O)=NS(=O)(=O)c2ccccc2C(=O)O)[nH]1` showed a GHS category of 5.
With `CC(C)c1[nH]c2ccccc2c1C(=O)c1cccnc1` the figure was 5; with `CCCCCCCCC(=O)O`, 5.
In turn, `C[C@@H](O)[C@H]1C(=O)N2C(C(=O)O)=C(S[C@@H]3CN[C@H](C(=O)N(C)C)C3)[C@H](C)[C@H]12` returned a GHS category of 5.
In turn, `CCc1cccc(CC)c1NC(=O)c1sc(N)nc1C` gave a GHS category of 4.
With `CCCCCCCCOc1ccccc1C(=O)Nc1ccc(C(=O)OCC[N+](C)(CC)CC)cc1` the figure was 4; with `Cc1cccc(N(C)C(=S)Oc2ccc3ccccc3c2)c1`, 5.
The result for `C[C@@H]1C[C@@H](O)CC(C)(C)C1=O` reads 5; that for `CCN(CC)C(=O)CCCn1nnnc1C`, 4.
For the compound `Cn1ccnc1Cc1nn[nH]n1`, the GHS category was 5.
With `N=C1C=CC2=CC(S(=O)(=O)O)=CC(=O)C2=C1NNc1ccc(-c2ccc(N=Nc3cc(S(=O)(=O)O)c4ccccc4c3N)cc2)cc1` the figure was 5.
With `Cc1cccc(Nc2cc(Cl)nc(SCC(=O)NCCO)n2)c1C` the figure was 5.
The result for `CS(=O)(=O)OC[C@@H](OS(C)(=O)=O)[C@@H](O)[C@H](O)[C@@H](COS(C)(=O)=O)OS(C)(=O)=O` reads 5; that for `C[Si]1(C)O[Si](C)(C)O[Si](C)(C)O[Si](C)(C)O[Si](C)(C)O1`, 5; that for `O=C1OC(=O)c2ccc3c4ccc5c6c(ccc(c7ccc1c2c73)c64)C(=O)OC5=O`, 5.
Compound `CC(C)=CCC(C#N)(CCN(C)C)c1cccc2ccccc12` (centres undefined) gave a GHS category of 4.
The result for `CNC(=O)C(=NNc1ccccc1[N+](=O)[O-])C(C)=O` reads 5; that for `CCCCCCC(=O)OC1CCC2C3CCC4=CC(=O)CCC4(C)C3CCC12C` (centres undefined), 4.
The result for `CNS(=O)(=O)Cc1ccc2[nH]cc(CCN(C)C)c2c1` reads 5.
With `CCOC(=O)CC1(C)OCCO1` the figure was 5.
Compound `CC(C)c1cc(C(C)C)c(N)c(C(C)C)c1N` registered a GHS category of 4.
With `CCCCC(CC)COC(=O)CCCCCCCC(=O)OCC(CC)CCCC` (centres undefined) the figure was 5.
With `CNC(=O)C(=NNc1ccccc1Cl)C(C)=O` the figure was 5; with `CO[Si](C)(OC)OC`, 5; with `C/C=C/C(=O)OC`, 5.
With `CCCCCCCC/C=C\CCCCCCCC(=O)NCC(C)O` (centres undefined) the figure was 5.
In the case of `CC(C)(C)C1CCC(OC(=O)OOC(=O)OC2CCC(C(C)(C)C)CC2)CC1` (centres undefined), the GHS category was determined as 5.
The compound `CCn1cc[n+](C)c1` registered a GHS category of 5.
With `COP(=O)(NC(=O)C(Cl)Cl)SC` (centres undefined) the figure was 4; with `Cc1ccc(O)c(/N=N/c2ccccc2[N+](=O)[O-])c1`, 5.
With `Clc1ccc2oc(C3(Cn4ccnc4)OCCO3)cc2c1` the figure was 4; with `COc1ccc(-c2cc(=O)c3c(OCCO)cc(O[C@@H]4O[C@H](CO[C@@H]5O[C@@H](C)[C@H](O)[C@@H](O)[C@H]5O)[C@@H](O)[C@H](O)[C@H]4O)cc3o2)cc1O`, 5.
With `CCCCCOc1ccc(-c2ccc(C#N)cc2)cc1` the figure was 5.
Take `Cc1cccc2ncc(C(=O)NC3CC3)c(=O)n12`: the GHS category is 3.
The result for `CCCO[Si](OCCC)(OCCC)OCCC` reads 5; that for `O=C(NCc1ncc(C(F)(F)F)cc1Cl)c1c(Cl)cccc1Cl`, 5; that for `O=C1c2ccccc2C(=O)C1c1ccc2ccccc2n1`, 5.
The result for `O=C=Nc1cccc2ccccc12` reads 5.
The compound `OC(c1ccc(F)cc1F)c1cccnc1Cl` (centres undefined) registered a GHS category of 5.
The result for `CC(C)(C)c1ccc(C=O)cc1` reads 4.

The record behind these values is the CATMoS acute toxicity set (Mansouri et al. 2021).
